One series is described as follows: clinical. Particulars: both, human, in vivo; for AUC(0-t) / AUC(0-inf) / Cmax: po, Least-Squares Means (LSM); for AUC(0-inf): AUCinf.
[1] abbreviates: plasma, fed vs fasting, Lortab + Colace co-administered, ln-transformed.
[2] abbreviates: plasma, fed vs fasting, Lortab administered alone, ln-transformed.
[3] abbreviates: plasma, with docusate vs without, fasting, ln-transformed.
The mark [4] stands for this setting: plasma, with docusate vs without, fed, ln-transformed.
Where [5] appears, read: Form A, plasma, Treatment A: one 10 mg/500 mg Lortab tablet + one 50 mg Colace capsule, single oral dose, fasting.
The mark [6] stands for this setting: Form A, plasma, Treatment A: Lortab 10 mg/500 mg + Colace 50 mg, single oral dose, fasting.
The mark [7] stands for this setting: Form B, plasma, Treatment B: Lortab 10 mg/500 mg alone, single oral dose, fasting.
[8] abbreviates: Form C, plasma, Treatment C: Lortab 10 mg/500 mg + Colace 50 mg, single oral dose, fed.
The mark [9] stands for this setting: Form D, plasma, Treatment D: Lortab 10 mg/500 mg alone, single oral dose, fed.

The structures appear in SMILES notation. Read-outs that look alike come from different tables or passages of the source.

Regarding `CC(=O)Nc1ccc(O)cc1` [Acetaminophen, acetaminophen], the “effect of food on Cmax (rate of exposure)” value (shortened to “effect of food on Cmax”) (fed vs fasting) is on record as “lowering the Cmax”. Further, the “AUC 0-t, Least-Squares Means (LSM), Form D” value (plasma, Treatment D: one 10 mg/500 mg Lortab tablet alone, single oral dose, fed (30 min after start of standard breakfast)) was found to be 19545.72 ng·h/mL. For the same compound, under setting [1], the “AUC 0-t, Ratio of LSM (C/A)” value worked out at 93.5%; the “AUCinf, Ratio of LSM (C/A)” value turned out to be 94.8%; the “Cmax, Ratio of LSM (C/A)” value is given as 72.3%. Under setting [2], the “AUC 0-t, Ratio of LSM (D/B)” value was found to be 94.3%; the “AUCinf, Ratio of LSM (D/B)” value is recorded as 97.3%; the “Cmax, Ratio of LSM (D/B)” value stood at 67.9%. Besides, under setting [3], the “AUC 0-t, Ratio of LSM (A/B)” value is reported as 101.4%; the “AUCinf, Ratio of LSM (A/B)” value came to 102.9%; the “Cmax, Ratio of LSM (A/B)” value was 92.0%. Under setting [4], the “AUC 0-t, Ratio of LSM (C/D)” value is on record as 100.5%; the “AUCinf, Ratio of LSM (C/D)” value came to 100.3%; the “Cmax, Ratio of LSM (C/D)” value is listed as 97.9%. In addition, the “effect of docusate on the pharmacokinetics” value (under fed and fasted conditions) is reported as “no significant effect”. In addition, the AUC(0-t) in the series “clinical” (setting [5]) was 21000 ng·h/mL. Also, the AUC(0-t) in the series “clinical” (Form B, plasma, Treatment B: one 10 mg/500 mg Lortab tablet alone, single oral dose, fasting) was 20700 ng·h/mL. In “clinical” (setting [6]), the AUC(0-inf) was 22700 ng·h/mL and the Cmax stood at 5450 ng/mL. In “clinical” (setting [7]), this compound yielded an AUC(0-inf) of 22000 ng·h/mL and a peak concentration (Cmax) of 5920 ng/mL. Further, in “clinical” (setting [8]), the AUC(0-inf) turned out to be 21500 ng·h/mL and the Cmax is 3940 ng/mL. In the series “clinical” (setting [9]), the total exposure AUC(0-inf) was 21400 ng·h/mL and the Cmax amounted to 4020 ng/mL.

Regarding `CCCCC(CC)COC(=O)CC(C(=O)OCC(CC)CCCC)S(=O)(=O)O` (stereo not shown) [Docusate, dioctyl sodium sulphosuccinate], the “absorption of docusate (measurable plasma concentrations)” value (50 mg Colace capsule oral, throughout the period of blood sampling) is reported as “absorbed in measurable amounts”. The “effect of food on Cmax” value (fed vs fasting) is on record as “not significantly affected by food”. Besides, under setting [1], the “AUC 0-t, Ratio of LSM (C/A)” value came out at 124.2%; the “AUCinf, Ratio of LSM (C/A)” value is listed as 128.8%; the “Cmax, Ratio of LSM (C/A)” value is listed as 104.4%. The “Cmax, Ratio of LSM (C/A)” value (plasma, fed vs fasting, Lortab + Colace co-administered, ln-transformed, listed as docusate) is 104.5%. Besides, the AUC(0-t) in “clinical” (setting [5]) amounted to 1170 ng·h/mL. Further, in the series “clinical” (setting [6]), the AUC(0-inf) is 1170 ng·h/mL and the Cmax turned out to be 608 ng/mL. Also, in the series “clinical” (setting [8]), the AUC(0-inf) worked out at 1510 ng·h/mL and the Cmax is 635 ng/mL.

With `COc1ccc2c3c1O[C@H]1C(=O)CC[C@H]4[C@@H](C2)N(C)CC[C@]314` [Hydrocodone, hydrocodone], under “both, human, in vivo”, the “AUC 0-t, Ratio of LSM (A/B)” value worked out at 102.5%; the “AUC 0-t, Ratio of LSM (C/A)” value is 105.0%; the “AUC 0-t, Ratio of LSM (C/D)” value is 97.4%; the “AUC 0-t, Ratio of LSM (D/B)” value is recorded as 110.6%. For the setting “both, human, in vivo”, the “AUCinf, Ratio of LSM (A/B)” value was found to be 107.2%; the “AUCinf, Ratio of LSM (C/A)” value is listed as 105.0%; the “AUCinf, Ratio of LSM (C/D)” value was 97.4%; the “AUCinf, Ratio of LSM (D/B)” value is listed as 115.6%. Further, under “both, human, in vivo”, the “Cmax, Ratio of LSM (A/B)” value was found to be 100.2%; the “Cmax, Ratio of LSM (C/A)” value is 91.7%; the “Cmax, Ratio of LSM (C/D)” value is recorded as 97.0%; the “Cmax, Ratio of LSM (D/B)” value is given as 94.6%. For the setting “in vivo”, the “effect of docusate on the pharmacokinetics” value was “no significant effect”, the “effect of food on Cmax” value was “no significant effect” and the “effect of food on extent of exposure (AUC)” value is reported as “no significant effect”. Further, in the series “clinical”, the Tmax was roughly 1 h. In the series “clinical” (Form A), this compound yielded an AUC(0-t) of 135 ng·h/mL, an AUC(0-inf) of 162 ng·h/mL and a Cmax of 24.3 ng/mL. In “clinical” (Form B), this compound yielded an AUC(0-t) of 132 ng·h/mL, an AUC(0-inf) of 151 ng·h/mL and a Cmax of 24.2 ng/mL. In addition, in the series “clinical” (Form C), the AUC(0-t) is 142 ng·h/mL, the AUC(0-inf) is 170 ng·h/mL and the Cmax was determined as 22.3 ng/mL. Further, in “clinical” (Form D), the AUC(0-t) amounted to 146 ng·h/mL, the AUC(0-inf) was 175 ng·h/mL and the concentration peaked (Cmax) at 22.9 ng/mL.

These data come from US8188108B2, “Pharmaceutical composition” (priority 2002, dated 2012).
